The nature of series [1]: pKa of the ligands by 1H NMR titration. Particulars: 0.20 M KNO3 with 10% (v/v) D2O, I = 0.20 M KNO3, 25.0 °C, read-out: pKa (OH). It counts as physicochemical. The protocol: Physico-chemical properties such as aqueous solubility, lipophilicity, and the actual protonation state at a given pH are known to influence the pharmacokinetic behavior of a drug.
Bruker Avance III HD Ascend 500 Plus instrument (Billerica, MA, USA) was used for NMR studies. ^1H NMR spectroscopic measurements were carried out with a WATERGATE water suppression pulse scheme in the presence of 10% (v/v) D2O in most cases. DSS internal standard was added to samples to obtain reference peaks. ^1H NMR titrations were carried out in the presence of 0.20 M KNO3. The computer program HypSpec[64] was used to obtain equilibrium constants.

Series [2] can be described thus: Thermodynamic aqueous solubility at pH 7.4. It counts as physicochemical. The note with it: 10 mM HEPES buffer, thermodynamic from solid, pH 7.4 (10 mM HEPES), 25.0 °C, read-out: thermodynamic aqueous solubility S7.4. The protocol: The concentration of the compounds was determined by UV–vis spectrophotometry. For calibration, stock solutions of the compounds were used with known concentrations dissolved in 100% DMSO, 75% DMSO, and 50% (v/v) DMSO/buffered aqueous solutions.

Another series deals with MES-SA. The note with it: monoculture, PrestoBlue; ref SI3; cited from earlier work.
In another series the test system is MES-SA/Dx5. Particulars: monoculture, ref SI3, cited from earlier work.
The next series concerns A431-B1. Set-up: method as in earlier work. Particulars: monoculture, ref SI3, cited from earlier work.
A short description of series [3]: pKa of in situ prepared complexes by pH-potentiometry. It counts as physicochemical. The note with it: I = 0.20 M KNO3. The source says:
The results, shown in Table 2, indicate good agreement between the data obtained by the different methods. It should be noted that these processes show overlap in all cases, and therefore, the assignment of the pKa values to the given moieties cannot be made reliably. However, by comparing the spectral changes with those observed for HQ and other simple derivatives,[25] it can be concluded that the lower pKa likely belongs to the deprotonation of the aqua coligand.
The pH-potentiometric measurements were carried out at 25.0 ± 0.1 °C in water in the pH range between 2.0 and 11.5 and at a constant ionic strength of 0.20 M KNO3. The titrations were performed in a carbonate-free KOH solution (0.20 M). The exact concentrations of the HNO3 and KOH solutions were determined by pH-potentiometric titrations. An Orion 710A pH-meter equipped with a Metrohm combined electrode (type 6.0234.100) and a Metrohm 665 Dosimat buret were used for this purpose. […] The average water ionization constant, pKw, was determined as 13.76 ± 0.01, which is in good agreement with the literature data.[67] The initial volume of the samples was 10.0 mL. […] Samples were degassed by bubbling purified argon through them for about 10 min prior to the measurements, and the inert gas was also passed over the solutions during the titrations. The computer program Hyperquad2013[64] was utilized to establish the stoichiometry of the species and to calculate the equilibrium constants.

The nature of series [4]: H2O/Cl– coligand exchange by UV–vis titration with chloride ions. It counts as physicochemical. Particulars: RhCp* complexes titrated at pH 7.4. The protocol:
When the isolated complexes (1–4) are dissolved in water, their chlorido coligand can be replaced by water, or vice versa in the aqua complexes [M(arene)(HL)(H2O)]^2+, the H2O → Cl^– exchange process can take place in the presence of chloride ions. The chloride ion affinity of the complexes was also investigated by UV–vis spectrophotometry. RhCp* and RuCym complexes were titrated with chloride ions at pH 7.4 and 6.0, respectively. For this experiment, pH values were chosen at which the formation of the mixed hydroxido species is negligible. A representative spectrum series for complex (4) is shown in Figure S27, and the calculated conditional exchange constants (logK’ (H2O/Cl^–)) are given in Table 2 and in Figure S23. […] The complexes of the amino acid hybrids HQCl-D-Pro and HQCl-D-hPro have lower logK’ (H2O/Cl^–) constants most likely due to the repulsive effect of the nearby COO^– group.[26]

Series [5] is described as follows: Ligand displacement with 2,2′-bipyridine, conditional formation constant. It counts as physicochemical. The note with it: pH 7.4; bpy competitor; UV–vis. From the text:
These pKa (H2O) values are lower than those of the complexes formed with the corresponding amino acid hybrids (HQCl-D-Pro, HQCl-D-hPro, Figure S23). Thus, the predominant complex at pH 7.4 is [M(arene)(HL)(H2O)]^2+ in all cases, in which the bidentate ligand coordinates via the (N,O^–) donor set and the pyridinium or pyrrolidinium nitrogens are protonated just like in the isolated complexes (Chart 3). Based on the unchanged spectra (vide supra), these types of complexes show no dissociation at pH = 2, indicating their high stability and hindering the direct determination of the formation constants. Therefore, a ligand displacement experiment was performed using UV–vis spectrophotometry with 2,2′-bipyridine (bpy) as a competitor to determine conditional formation constants at pH = 7.4 (Figure S25). […] Nevertheless, these values indicate a high stability of the complexes in solution, and <1% of dissociation is estimated at 1 μM concentration at pH = 7.4. The ligand displacement measurement could not be applied to the RuCym complexes due to the release of the p-cymene ring followed by the formation of the mixed ligand complex with bpy and oxidation of the metal center (Figure S26), similarly to analogue complexes.[14],[26],[27]

Converted amounts (≈) assume the structure as drawn. Where two headings read alike, the source gives them in different places.

Take `Oc1c(CN2CCCCC2)cc(Cl)c2cccnc12` [HQCl-pip, 5-chloro-7-(piperidin-1-ylmethyl)quinolin-8-ol]: in series [1], the pKa (in general, the pH at which an ionisable group is half protonated) was 7.43 ± 0.02. The thermodynamic solubility (usually the concentration in solution at equilibrium with solid) in series [2] was found to be 254 ± 3 µM (≈ 70.3 µg/mL). The IC50 (commonly the midpoint of a concentration-inhibition curve) in the series on MES-SA was 2490 ± 390 nM; in the series on MES-SA/Dx5 (PrestoBlue), 290 ± 50 nM; in the series on A431-B1 (72 h, PrestoBlue) it was 1690 ± 270 nM. Besides, the “SR (MES-SA / MES-SA/Dx5)” value was 1.31 in the series with MES-SA/Dx5 (+ 1 µM TQ) and 8.71 with MES-SA/Dx5. In addition, the “SR (A431 / A431-B1)” value in the series on A431-B1 is recorded as 3.96.

As to [RhCp*(HQCl-Pip)Cl]Cl [(3)], in series [3], the “pKa (H2O)” value stood at 9.39 ± 0.07 and the “pKa (Npyr/pipH+)” value worked out at 10.41 ± 0.10. The “logK’ (H2O/Cl–)” value in series [4] amounted to 2.21 ± 0.03. For the same compound, the “logK’ [M(arene)L]7.4 conditional formation constant” value in series [5] worked out at 11.89 ± 0.03.

(Values after article PMC11653257, “Organometallic Half-Sandwich Complexes of 8-Hydroxyquinoline-Derived Mannich Bases with Enhanced Solubility: Targeting Multidrug Resistant Cancer” (Inorganic Chemistry, 2024).)
